Experimental data taken from ChEMBL document CHEMBL2177100, “Structural optimization and structure-activity relationships of N2-(4-(4-Methylpiperazin-1-yl)phenyl)-N8-phenyl-9H-purine-2,8-diamine derivatives, a new class of reversible kinase inhibitors targeting both EGFR-activating and resistance mutations” (J Med Chem, 2012).
Activity calls are given as the source filed them. The rule behind the calls is not given here.

Key:
HCC827 [1] = test: Antitumor activity against human HCC827 cells xenografted in BALB/c mouse assessed as complete tumor regression at 5 mg/kg, po qd measured within 15 days compound treatment; assay type: functional, organism-based; design: dose 5 mg/kg
[2] = target: Mitogen-activated protein kinase 1 (Homo sapiens, UniProt P28482); test: Inhibition of human recombinant ERK2 by radiometric kinase assay
[3] = target: Mitogen-activated protein kinase 12 (Homo sapiens, UniProt P53778); test: Inhibition of human recombinant p38gamma by radiometric kinase assay
HCC827 [4] = test: Antitumor activity against human HCC827 cells xenografted in BALB/c mouse assessed as reduction tumor volume at 1 mg/kg, po qd; assay type: functional, organism-based; design: dose 1 mg/kg
[5] = Cmax in Sprague-Dawley rat at 20 mg/kg, po; assay type: ADME, organism-based; design: dose 20 mg/kg, route oral; conditions: in vivo
[6] = target: Serine/threonine-protein kinase N1 (Homo sapiens, UniProt Q16512); test: Inhibition of human recombinant PKN1 by radiometric kinase assay
Sequence of Serine/threonine-protein kinase N1 (Q16512 whole entry): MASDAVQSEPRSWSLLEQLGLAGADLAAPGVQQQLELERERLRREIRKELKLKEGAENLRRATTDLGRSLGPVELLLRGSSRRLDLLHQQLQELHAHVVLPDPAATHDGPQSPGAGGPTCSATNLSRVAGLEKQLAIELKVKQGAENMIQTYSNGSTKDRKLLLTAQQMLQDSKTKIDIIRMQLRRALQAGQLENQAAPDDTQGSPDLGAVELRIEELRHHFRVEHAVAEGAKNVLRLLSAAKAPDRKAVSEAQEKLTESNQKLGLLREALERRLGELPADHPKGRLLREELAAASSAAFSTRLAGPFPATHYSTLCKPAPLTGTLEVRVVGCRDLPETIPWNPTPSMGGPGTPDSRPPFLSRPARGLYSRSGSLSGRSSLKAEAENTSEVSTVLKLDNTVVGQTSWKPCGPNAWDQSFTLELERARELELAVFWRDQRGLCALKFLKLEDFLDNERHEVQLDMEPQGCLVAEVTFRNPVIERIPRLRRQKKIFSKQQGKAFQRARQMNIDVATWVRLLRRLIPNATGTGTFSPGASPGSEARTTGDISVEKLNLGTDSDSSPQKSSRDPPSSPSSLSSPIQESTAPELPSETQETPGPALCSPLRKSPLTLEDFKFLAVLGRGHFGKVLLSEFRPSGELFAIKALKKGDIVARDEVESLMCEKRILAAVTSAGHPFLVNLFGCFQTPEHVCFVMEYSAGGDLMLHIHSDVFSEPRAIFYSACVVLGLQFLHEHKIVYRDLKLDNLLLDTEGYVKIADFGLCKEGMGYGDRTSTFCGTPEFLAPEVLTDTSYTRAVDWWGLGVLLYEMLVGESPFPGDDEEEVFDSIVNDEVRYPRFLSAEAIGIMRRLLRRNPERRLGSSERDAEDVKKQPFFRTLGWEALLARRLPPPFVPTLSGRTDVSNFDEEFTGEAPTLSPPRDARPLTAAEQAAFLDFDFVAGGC

[7] = target: Serine/threonine-protein kinase WNK1 (Homo sapiens, UniProt Q9H4A3); test: Inhibition of human recombinant WNK1 by radiometric kinase assay
[8] = target: Protein kinase C theta type (Homo sapiens, UniProt Q04759); test: Inhibition of human recombinant PKCtheta by radiometric kinase assay
[9] = target: MAP kinase-interacting serine/threonine-protein kinase 2 (Homo sapiens, UniProt Q9HBH9); test: Inhibition of human recombinant MNK2 by radiometric kinase assay
Sequence of MAP kinase-interacting serine/threonine-protein kinase 2 (Q9HBH9 whole entry): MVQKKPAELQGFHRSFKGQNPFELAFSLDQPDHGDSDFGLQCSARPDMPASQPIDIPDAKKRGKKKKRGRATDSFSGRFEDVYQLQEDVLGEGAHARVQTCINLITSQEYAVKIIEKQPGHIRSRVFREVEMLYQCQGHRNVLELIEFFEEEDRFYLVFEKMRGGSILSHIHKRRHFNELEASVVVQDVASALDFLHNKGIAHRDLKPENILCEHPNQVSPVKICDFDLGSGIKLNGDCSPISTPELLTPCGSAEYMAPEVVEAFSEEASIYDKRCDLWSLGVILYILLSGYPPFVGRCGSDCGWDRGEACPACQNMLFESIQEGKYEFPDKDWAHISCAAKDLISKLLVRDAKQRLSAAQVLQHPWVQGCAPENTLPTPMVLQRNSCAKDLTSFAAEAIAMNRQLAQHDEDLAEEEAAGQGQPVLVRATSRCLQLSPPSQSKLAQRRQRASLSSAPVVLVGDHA

Insulin receptor = Insulin receptor (Homo sapiens, UniProt P06213); test: Inhibition of human recombinant INSR by radiometric kinase assay
Sequence of Insulin receptor (P06213 28-758 limits assumed): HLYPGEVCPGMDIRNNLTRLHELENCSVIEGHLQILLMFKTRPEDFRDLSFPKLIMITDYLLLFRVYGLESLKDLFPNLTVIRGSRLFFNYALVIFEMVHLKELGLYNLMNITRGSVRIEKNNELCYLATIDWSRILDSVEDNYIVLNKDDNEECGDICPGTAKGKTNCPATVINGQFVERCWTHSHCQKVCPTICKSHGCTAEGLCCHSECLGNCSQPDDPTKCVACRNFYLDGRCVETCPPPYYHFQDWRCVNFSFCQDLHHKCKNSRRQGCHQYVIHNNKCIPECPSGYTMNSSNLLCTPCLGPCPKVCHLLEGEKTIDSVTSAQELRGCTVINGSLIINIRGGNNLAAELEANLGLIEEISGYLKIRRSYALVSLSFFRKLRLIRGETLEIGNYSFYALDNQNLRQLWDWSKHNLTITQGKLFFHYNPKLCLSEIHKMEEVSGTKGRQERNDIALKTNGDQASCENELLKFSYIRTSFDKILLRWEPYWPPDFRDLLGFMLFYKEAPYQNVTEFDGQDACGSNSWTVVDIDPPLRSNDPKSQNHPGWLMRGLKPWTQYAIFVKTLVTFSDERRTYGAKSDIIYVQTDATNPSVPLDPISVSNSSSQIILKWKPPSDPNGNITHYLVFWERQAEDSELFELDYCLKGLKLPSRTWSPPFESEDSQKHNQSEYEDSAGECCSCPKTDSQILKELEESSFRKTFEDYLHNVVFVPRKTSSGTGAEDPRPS
Sequence of Insulin receptor (P06213 763-1382 limits assumed): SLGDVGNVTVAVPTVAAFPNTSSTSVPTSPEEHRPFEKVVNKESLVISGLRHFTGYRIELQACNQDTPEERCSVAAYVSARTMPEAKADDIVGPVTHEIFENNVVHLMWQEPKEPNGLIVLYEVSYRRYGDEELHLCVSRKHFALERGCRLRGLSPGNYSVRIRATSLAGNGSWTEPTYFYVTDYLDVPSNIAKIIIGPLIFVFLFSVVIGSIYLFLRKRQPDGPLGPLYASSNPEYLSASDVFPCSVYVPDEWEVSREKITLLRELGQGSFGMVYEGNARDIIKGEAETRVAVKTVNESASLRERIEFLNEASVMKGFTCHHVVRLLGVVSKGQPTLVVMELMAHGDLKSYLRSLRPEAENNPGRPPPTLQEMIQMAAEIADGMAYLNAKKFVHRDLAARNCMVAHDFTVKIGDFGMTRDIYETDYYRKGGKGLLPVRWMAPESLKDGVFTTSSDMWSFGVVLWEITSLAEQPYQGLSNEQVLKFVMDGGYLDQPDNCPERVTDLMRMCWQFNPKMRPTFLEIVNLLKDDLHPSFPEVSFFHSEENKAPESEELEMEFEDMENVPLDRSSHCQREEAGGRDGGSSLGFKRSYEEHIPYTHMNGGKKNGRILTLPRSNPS

[10] = Tmax in Sprague-Dawley rat at 20 mg/kg, po; assay type: ADME, organism-based; design: dose 20 mg/kg, route oral; conditions: in vivo
[11] = target: Tyrosine-protein kinase JAK2 (Homo sapiens, UniProt O60674); test: Inhibition of human recombinant JAK2 by radiometric kinase assay
Sequence of Tyrosine-protein kinase JAK2 (O60674 whole entry): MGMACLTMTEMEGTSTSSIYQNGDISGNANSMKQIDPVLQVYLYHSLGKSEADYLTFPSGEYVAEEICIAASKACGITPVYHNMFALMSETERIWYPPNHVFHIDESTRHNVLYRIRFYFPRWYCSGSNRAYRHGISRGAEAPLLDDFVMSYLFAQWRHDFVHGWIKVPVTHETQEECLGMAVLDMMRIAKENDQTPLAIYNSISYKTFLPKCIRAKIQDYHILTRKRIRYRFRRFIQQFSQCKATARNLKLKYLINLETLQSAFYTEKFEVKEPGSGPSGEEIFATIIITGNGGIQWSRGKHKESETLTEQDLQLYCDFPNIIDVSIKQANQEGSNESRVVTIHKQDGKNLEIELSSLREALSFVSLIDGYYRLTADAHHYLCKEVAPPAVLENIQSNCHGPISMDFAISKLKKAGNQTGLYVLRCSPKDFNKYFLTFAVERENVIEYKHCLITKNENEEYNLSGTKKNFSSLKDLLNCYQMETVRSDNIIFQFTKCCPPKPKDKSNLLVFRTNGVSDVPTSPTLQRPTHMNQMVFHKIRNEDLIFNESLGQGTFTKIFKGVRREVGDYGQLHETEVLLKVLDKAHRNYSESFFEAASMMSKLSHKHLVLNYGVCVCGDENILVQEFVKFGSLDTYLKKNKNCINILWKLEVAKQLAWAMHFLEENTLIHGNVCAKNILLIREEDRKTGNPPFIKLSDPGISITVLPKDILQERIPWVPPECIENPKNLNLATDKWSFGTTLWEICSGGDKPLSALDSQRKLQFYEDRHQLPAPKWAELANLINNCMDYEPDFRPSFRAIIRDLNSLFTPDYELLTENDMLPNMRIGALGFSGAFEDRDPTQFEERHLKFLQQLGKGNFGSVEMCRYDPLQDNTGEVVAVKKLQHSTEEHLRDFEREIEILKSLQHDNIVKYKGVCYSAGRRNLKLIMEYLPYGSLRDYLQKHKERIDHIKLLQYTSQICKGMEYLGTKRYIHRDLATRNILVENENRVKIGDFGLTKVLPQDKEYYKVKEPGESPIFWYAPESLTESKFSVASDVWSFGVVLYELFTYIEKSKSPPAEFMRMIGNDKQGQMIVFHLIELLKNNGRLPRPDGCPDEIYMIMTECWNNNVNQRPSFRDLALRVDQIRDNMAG

HCC827 [12] = test: Antitumor activity against human HCC827 cells xenografted in BALB/c mouse assessed as reduction tumor volume at 5 mg/kg, po qd; assay type: functional, organism-based; design: dose 5 mg/kg
[13] = target: Serine/threonine-protein kinase N2 (Homo sapiens, UniProt Q16513); test: Inhibition of human recombinant PKN2 by radiometric kinase assay
[14] = target: Serine/threonine-protein kinase PLK1 (Homo sapiens, UniProt P53350); test: Inhibition of human recombinant PLK1 by radiometric kinase assay
Sequence of Serine/threonine-protein kinase PLK1 (P53350 whole entry): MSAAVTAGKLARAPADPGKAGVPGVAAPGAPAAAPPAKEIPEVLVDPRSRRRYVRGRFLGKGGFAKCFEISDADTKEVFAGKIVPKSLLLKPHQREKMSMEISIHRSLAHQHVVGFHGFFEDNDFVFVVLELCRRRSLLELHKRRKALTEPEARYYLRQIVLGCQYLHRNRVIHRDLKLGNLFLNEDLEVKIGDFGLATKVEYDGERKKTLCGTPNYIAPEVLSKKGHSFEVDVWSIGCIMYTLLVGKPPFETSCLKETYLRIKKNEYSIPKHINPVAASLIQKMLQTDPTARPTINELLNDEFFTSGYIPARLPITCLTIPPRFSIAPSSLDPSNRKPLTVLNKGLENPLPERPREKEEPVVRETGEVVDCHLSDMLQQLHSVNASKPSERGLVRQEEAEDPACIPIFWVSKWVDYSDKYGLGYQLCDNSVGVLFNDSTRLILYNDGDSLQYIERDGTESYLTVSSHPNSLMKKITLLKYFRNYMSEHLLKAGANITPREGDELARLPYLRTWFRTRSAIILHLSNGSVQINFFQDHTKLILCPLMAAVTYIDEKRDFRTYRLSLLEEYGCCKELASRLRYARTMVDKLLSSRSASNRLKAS

[15] = target: MAP kinase-activated protein kinase 5 (Homo sapiens, UniProt Q8IW41); test: Inhibition of human recombinant MK5 by radiometric kinase assay
[16] = target: Mitogen-activated protein kinase 9 (Homo sapiens, UniProt P45984); test: Inhibition of human recombinant JNK2 by radiometric kinase assay
[17] = target: Serine/threonine-protein kinase pim-2 (Homo sapiens, UniProt Q9P1W9); test: Inhibition of human recombinant PIM2 by radiometric kinase assay
Sequence of Serine/threonine-protein kinase pim-2 (Q9P1W9 whole entry): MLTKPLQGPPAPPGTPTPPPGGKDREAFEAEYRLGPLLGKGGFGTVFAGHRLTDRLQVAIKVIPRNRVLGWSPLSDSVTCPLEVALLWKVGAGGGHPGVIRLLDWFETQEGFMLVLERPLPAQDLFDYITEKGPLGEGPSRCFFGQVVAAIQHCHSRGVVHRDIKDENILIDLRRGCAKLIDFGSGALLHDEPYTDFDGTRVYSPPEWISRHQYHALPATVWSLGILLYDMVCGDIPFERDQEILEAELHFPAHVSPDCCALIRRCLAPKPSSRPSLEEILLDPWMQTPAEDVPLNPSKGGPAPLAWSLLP

A-431 = test: Cytotoxicity against human A431 cells incubated for 72 hrs by MTT assay; assay type: functional, cell-based; conditions: A-431, 72 h
[18] = Clearance in Sprague-Dawley rat at 20 mg/kg, po; assay type: ADME, organism-based; design: dose 20 mg/kg, route oral; conditions: in vivo
[19] = Binding affinity to […] EGFR […] mutant by KINOMEscan kinase binding assay
[20] = target: Cyclin-dependent kinase 2 (Homo sapiens, UniProt P24941); test: Inhibition of human recombinant CDK2 by radiometric kinase assay

- IC50 [2]: > 10 µM
- IC50 [3]: > 10 µM
- Cmax [5]: 230 ng/mL
- IC50 [6]: 6.1 µM
- IC50 [7]: > 10 µM
- IC50 [8]: 3.6 µM
- IC50 [9]: 3.2 µM
- IC50 (Insulin receptor): > 10 µM
- Tmax [10]: 1 h
- IC50 [11]: 1.2 µM
- IC50 [13]: > 10 µM
- IC50 [14]: > 10 µM
- IC50 [15]: > 10 µM
- IC50 [16]: 1.5 µM
- IC50 [17]: > 10 µM
- CL/F [18]: 162 mL/min/kg
- Kd [19]: 0.0005 µM
- IC50 [20]: > 10 µM
SMILES: CN1CCN(c2ccc(Nc3ncc4nc(Nc5ccccc5)n(C5CCCC5)c4n3)cc2)CC1
- Activity (HCC827 [1]): Active
- TGI (HCC827 [4]): Active
- TGI (HCC827 [12]): Active
- IC50 (A-431): 0.12 µM
